# Where a SMILES comes first, the peptide text is derived from it.
# Key:
# [1] = test system: GluR1; assay: Total and phosphoserine-845 GluR1 by Western blot in medial prefrontal cortex; type: in vivo, rat; conditions: 24 hrs after GLYX-13 3 mg/kg IV or ketamine 10 mg/kg IV
# Excerpt: Total and Phosphoserine-9 glycogen synthase kinase 3β (GSK-3β) were quantified by ELISA according to the manufacturer's instructions (catalog numbers ADI-900-144 and ADI-900-123A, Assay Designs, USA). Total and phosphoserine-845 GluR1 were quantified by Western blot.
# [2] = test system: rat hippocampal organotypic cultures; assay: LTP and LTD in rat hippocampal organotypic cultures; type: cell-based; conditions: in vitro
# [3] = test system: rats; assay: Porsolt test after microinjection into medial prefrontal cortex or motor cortex; type: in vivo, rat
# Protocol: To determine whether GLYX-13 acts in an area of the brain that is clinically relevant for depression, GLYX-13 was administered to either the medial prefrontal cortex (MPFC), which is associated with mood and depression, or to the motor cortex (FIG. 4). Mean time spent immobile in the Porsolt test was determined for groups of 10 three-month old male Fisher Brown Norway FI (FBNFI) rats pretreated with a single injection of GLYX-13 (1, 10 ug/side) or a single saline vehicle injection (0.5 ul/1 min) bilaterally into the medial prefrontal cortex or motor cortex (dorsal control) in animals with surgically implanted chronic indwelling cannulae aimed at the MPFC. […] Animals received a single 15 min training swim session one day before dosing.
# The Porsolt test adapted for use in rats was performed as above. Animals were placed in a 46 cm tall×20 cm in diameter clear plastic tube filled to 30 cm with tap water (23±1° C.) for 15 min on the first day (habituation) and […] on the subsequent test day.
# Bilateral 22-gauge guide cannulae (Plastic Products, USA) were stereotaxically implanted into the infralimbic/prelimbic cortex (+2.7 mm anterior,±1.2 mm lateral, 3.1 mm. ventral to bregma; cannulae angled 12° away from the midline) or dorsal control primary secondary motor cortex. (+2.7 mm anterior,±1.2 mm lateral, 1.0 mm ventral to bregma; cannulae angled 12° away from the midline). Animals were allowed 1 week to recover from surgery before the start of testing. After the completion of behavioral testing, histology was conducted for cannulae tip location. For medial prefrontal cannulae, all tips were located within the infralimbic or prelimbic cortex 2.2-3.2 mm anterior to bregma. For motor cortex cannulae, all tips were located, within the primary or secondary motor cortex 2.2-3.2 mm anterior to bregma.
# [4] = test system: β-catenin; assay: Total β-catenin protein level in medial prefrontal cortex; type: in vivo, rat; conditions: 24 hrs after GLYX-13 3 mg/kg IV or ketamine 10 mg/kg IV
# [5] = test system: rats; assay: Drug discrimination in rats trained to discriminate ketamine from saline
# Protocol: Testing was conducted as described previously (Nicholson K L & Balster R L (2009) The discriminative stimulus effects of N-methyl-D-aspartate glycine-site ligands in NMDA antagonist-trained rats. Psychopharmacology (Berl) 203(2):441-451). Adult male Sprague Dawley rats were trained to discriminate ketamine (10 mg/kg IP) from saline. Animals were then tested following various doses of GLYX-13 administration (3-156 mg/kg SC) and the percent of ketamine lever responding and rates of responding were recorded.
# [6] = test system: rats; assay: Conditioned place preference; type: in vivo, rat; conditions: GLYX-13 10 mg/kg IV; ketamine 10 mg/kg IV
# Protocol: Animals were trained with GLYX-13 (10 mg/kg, IV), ketamine (10 mg/kg, IV), or saline vehicle (1 mL/kg, IV) utilizing an unbiased two-chamber conditioned place preference apparatus.
# [7] = target: T1, NMDA receptor (Rattus norvegicus, UniProt P35439); assay: Pharmacologically isolated NMDAR EPSCs in hippocampal slices (CA1 pyramidal neurons); type: cell-based; conditions: NMDA receptor current, hippocampal slice assay; read-out: intrinsic activity relative to D-serine (full agonist)
# T1 construct: from tissue; host or cells: rat hippocampal slices, CA1 pyramidal neurons
# Protocol: Experiments were conducted on hippocampal slices from 14-18 day old Sprague-Dawley rats. Whole cell recordings were obtained from CA1 pyramidal neurons voltage clamped at −69 mV, in slices perfused with ACSF containing 0 mM [Mg2+] and 3 mM [Ca2+], plus 10 μM bicuculline and 20 μM CNQX to pharmacologically isolate NMDAR-dependent. EPSCs. Following bath applications of varying concentrations of GLYX-13 and D-serine, EPSCs were elicited by stimulating Schaffer collateral fibers with single electrical pulses (80 μs duration) once every 30 s.
# Functional affinity, Kp, of GLYX-13 for the NMDAR was estimated using the equiactive concentration null method of Stephenson (Stephenson R. P. (1956) A modification of receptor theory. Br J Pharmacol Chemother 11(4):379-393) as exemplified by Kenakin (Kenakin T. P. (1997) Pharmacologic Analysis of Drug-Receptor Interaction (New York.)) In this analysis concentration-response curves are generated to full agonist, and to the full agonist in the presence of a set concentration of the partial agonist of interest (FIG. 18, Panel B). Equiactive concentrations arc read off the […] of each of the concentration-respouse curves and plotted as the concentration of full agonist [D-serine] alone and in the presence of partial agonist [GLYX-13] that produce equal effect.
# [8] = test system: rats; assay: Prepulse inhibition; type: in vivo, rat; conditions: Sprague-Dawley rats; GLYX-13 10 mg/kg IV tested 15 min post injection; ketamine 10 mg/kg IP tested immediately
# Protocol: Animals were given intravenous injections of GLYX-13 (10 mg/kg) or saline via chronic indwelling femoral vein cannulae and tested 15 min post injection, or intraperitoneal ketamine (10 mg/kg) or saline vehicle (1 mL/kg IV or IP respectively) and tested immediately post injection for prepulse inhibition.
compound,measurement,setting,value
"C[C@@H](O)[C@H](N)C(=O)N1CCC[C@H]1C(=O)N1CCC[C@H]1C(=O)N[C@H](C(N)=O)[C@@H](C)O [GLYX-13, L-threonyl-L-prolyl-L-prolyl-L-threonine amide] (H-TPPT-NH2)",Phosphoserine-845 GluR1/total GluR1 ratio,[1],increased
same,long-term depression (LTD),[2],reducing
same,long-term potentiation (LTP),[2],markedly elevate
same,effect on floating time in the Porsolt test,"[3]; MPFC injection 1 μg/side, two weeks post dosing, independent group",Reduction in floating time was still apparent
same,effect on floating time in the Porsolt test,"[3]; MPFC injections, 1 and 10 μg/side, 20 min post dosing",reduced floating time
same,reduction in floating compared to saline control or GLYX-13 injected into motor cortex,"[3]; injected into MPFC, FBNF1 rats, 20 min post injection, Mean±SEM",50±5%
same,total β-catenin,[4],reduced
same,suppression of operant responding (rates of responding),"[5]; SC, 3-156 mg/kg",did not suppress operant responding at any dose
same,ketamine-like discriminative stimulus effects (percentage ketamine-lever responding),"[5]; SC, dose range 3-156 mg/kg",did not show any ketamine-like discriminative stimulus effects
same,therapeutic index,"[5]; drug discrimination highest dose vs Porsolt active dose 10 mg/kg SC, printed as 170:10",≥ 17
same,effect in the drug discrimination assay,"[5]; highest dose evaluated, 156 mg/kg SC",essentially without effect
same,"conditioned place preference, an indicator of abuse potential",[6],did not exhibit either of these effects
same,Emax,[7],23%
same,"prepulse inhibition, an indicator of dissociative effects",[8],did not exhibit either of these effects
